{"source": "paper PMC5549559", "about": "(Cellular signalling, 2015)", "key": {"p38": {"system": "p38", "experiment": "p38 activation", "format": "cell-based, Chinese hamster", "conditions": "western blot, ± SD, mean of 3 separate experiments (Figure 5D)"}, "[1]": {"system": "kappa opioid receptor (KOR)", "experiment": "GloSensor cAMP assay", "format": "cell-based"}, "[2]": {"system": "kappa opioid receptor (KOR)", "experiment": "PathHunter β-arrestin recruitment assay in Drx-KOR cells", "format": "cell-based", "conditions": "dynorphin, various concentrations, 90 min at 37°C; Drx-KOR cells (Figure 5A)"}, "rats": {"system": "rats", "conditions": "ref [11], cited from earlier work; for cocaine self-administration (drug intake): intra-VTA infusion, rats"}}, "data": [{"molecule": "Dynorphin A (1-17) (YGGFLRRIRPKLKWDNQ; Dynorphin A(1-17); UniProt P01213 207-223, looked up)", "values": [{"measurement": "increase in phospho-p38/total p38", "setting": "p38; 1 μM dynorphin, 15 min, CHO-KOR cells, relative to untreated", "value": "1.76 ± 0.12", "unit": "fold"}, {"measurement": "increase in phospho-p38/total p38", "setting": "p38; CHO-KOR + HA-OX1R, 500 nM orexin 10 min prior to dynorphin, relative to untreated cells", "value": "2.82 ± 0.36", "unit": "fold"}, {"measurement": "KOR response to dynorphin (cAMP) on transfection and activation of 5HT2aR", "setting": "[1]; 1 μM dynorphin, CHO-KOR + 5HT2aR, activated (Figure 1A)", "value": "does not affect the KOR response to dynorphin"}, {"measurement": "β-arrestin recruitment to KOR (luminescence)", "setting": "[2]", "value": "concentration-dependent increase in luminescence"}]}, {"molecule": "O=S(=O)(NCCNC/C=C/c1ccc(Br)cc1)c1cccc2cnccc12", "note": "[H89]", "values": [{"measurement": "effect of PKA inhibitor on OX1R attenuation of KOR Gαi signaling", "setting": "[1]; PKI or H89, 2 h, CHO-KOR + HA-OX1R, 500 nM orexin, 1 μM dynorphin (Figure 2B)", "value": "did not affect OX1R attenuation of KOR Gαi signaling"}]}, {"molecule": "Cc1nc2ccc(NC(=O)Nc3ccnc4cccnc34)cc2o1", "note": "[SB-334867]", "values": [{"measurement": "cocaine self-administration (drug intake)", "setting": "rats", "value": "reduces cocaine self-administration in rats"}]}, {"molecule": "Oc1ccc2c3c1O[C@H]1c4[nH]c5c(c4C[C@@]4(O)[C@@H](C2)N(CC2CC2)CC[C@]314)C[C@@]1(O)[C@H]2Cc3ccc(O)c4c3[C@@]1(CCN2CC1CC1)[C@H]5O4", "note": "[norBNI]", "values": [{"measurement": "cocaine self-administration (drug intake)", "setting": "rats", "value": "has no effect on drug intake"}, {"measurement": "effect on ability of SB-334867 to reduce drug intake", "setting": "rats; norBNI with SB-334867, rats", "value": "blocks the ability of SB-334867 to reduce drug intake"}]}]}
